Laboratory results published in patent publication EP4455142A1, “NOVEL INHIBITOR OF QPCTL AND/OR QC” (Scenic Immunology B.V., priority 2023, dated 2024).

Tests used:
[1] = biological target: T1, human isoQC (Homo sapiens, UniProt Q9NXS2); assay: Assay 1 - isoQC potency, fluorescent enzymatic assay (H-Gln-AMC, coupled pGAPase detection); type: biochemical; conditions: recombinant isoQC, 1 hour at 37°C
T1 construct: The Golgi luminal, enzymatically active region of human isoQC (S53-L382; see, e.g., Huang et al., 2011); GST (with enterokinase site) (N, cleaved yes); made in house; host or cells: E. coli
T1 sequence (Q9NXS2 53-382): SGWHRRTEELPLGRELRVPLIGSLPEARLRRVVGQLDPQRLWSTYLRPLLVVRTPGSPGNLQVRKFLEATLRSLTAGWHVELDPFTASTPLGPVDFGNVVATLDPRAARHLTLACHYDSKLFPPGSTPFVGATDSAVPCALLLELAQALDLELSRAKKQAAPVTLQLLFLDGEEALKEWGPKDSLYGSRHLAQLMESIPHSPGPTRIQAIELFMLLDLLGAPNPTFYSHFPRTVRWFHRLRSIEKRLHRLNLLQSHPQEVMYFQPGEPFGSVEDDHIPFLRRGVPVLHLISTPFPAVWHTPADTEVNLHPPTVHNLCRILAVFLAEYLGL
Text: The Golgi luminal, enzymatically active region of human isoQC (S53-L382; see, e.g., Huang et al., 2011) was obtained by expression in E. coli of an N-terminally GST Enterokinase and C-terminally 6xHis tagged construct in the pET41(+) vector and subsequent purification using Ni-NTA IMAC. Enterokinase digestion ensued, followed by another Ni-NTA IMAC purification, Superdex75 based size exclusion and finally a spin concentration using a 10 kDa molecular weight cutoff. The final protein is formulated in 50 mM Tris-HCl, 150 mM NaCl, 50% Glycerol, pH 7.8.
(§1) Pyroglutamylation was measured by conversion of glutamine-4-amino-7-methylcoumarine (H-Gln-AMC, Bachem) to pyroglutamyl-AMC, which is subsequently a specific substrate for pyroglutamylaminopeptidase (pGAPase, Qiagen), releasing free AMC which can be fluorescently detected. For a typical inhibition assay, 7.5 µL aliquots of threefold dilutions of test compound in 50mM Tris pH8 buffer were plated in 384-well plates. 15 µL 20 µM hGln-AMC (diluted from a 40 mM stock dissolved in 25 mM HEPES using 50 mM Tris-HCl 25 pH 8.0) was added to each well. Finally, 7.5 µL, 3 ng/µL recombinant isoQC enzyme was added and the reaction mixture was incubated for 1 hour at 37°C. A 5 minute incubation at 98°C was then performed to denature the isoQC enzyme and stop the reaction.
To detect the amount of pyroglutamyl-AMC formed, a 0.125 U/mL pGAPase enzyme diluted in 50 mM Tris-HCl pH 8.0 containing 10 mM dithiothreitol (DTT) solution was prepared. 25 µL of the pyroglutamylation reaction mixture was transferred into an empty plate and to that, 25 µL of the pGAPase enzyme solution was added. Plates were then incubated for 25 minutes at room temperature before fluorescence readings were taken on an Envision2 plate reader with excitation set at 380 nm and emission at 450 nm. DMSO concentrations during the assay never exceeded 1% and activities were compared to controls containing only the same amount of DMSO and no test compound. Controls were taken along containing pyroglutamylated-AMC (Bachem, dissolved at 10 mM in DMSO) instead of H-Gln-AMC to control for pGAPase inhibition.
(§2) IC50 values are calculated using non-linear regression analysis with GraphPad Prism software.

[2] = biological target: T2, recombinant QC enzyme (Homo sapiens, UniProt Q16769); assay: Assay 2 - QC potency, fluorescent enzymatic assay (H-Gln-AMC, coupled pGAPase detection); type: biochemical; conditions: 1 hour at 37°C
T2 construct: bacterial expression of residues 33-361 of uniprot ID Q16769, fused to a His tag; His tag (cleaved yes); made in house
T2 sequence (Q16769 33-361): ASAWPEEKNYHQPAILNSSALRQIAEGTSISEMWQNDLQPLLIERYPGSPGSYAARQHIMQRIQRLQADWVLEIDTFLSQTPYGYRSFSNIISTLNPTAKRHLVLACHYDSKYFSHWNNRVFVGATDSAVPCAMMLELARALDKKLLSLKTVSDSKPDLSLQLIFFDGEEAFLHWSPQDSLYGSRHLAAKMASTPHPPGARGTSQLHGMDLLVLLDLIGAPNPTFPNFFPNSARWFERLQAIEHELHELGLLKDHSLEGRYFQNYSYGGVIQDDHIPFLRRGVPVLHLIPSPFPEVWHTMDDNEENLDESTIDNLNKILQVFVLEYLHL
Experimental: After scale-up, expression and lysis, protein was purified by Ni-NTA IMAC, dialysed in the presence of Factor Xa, further purified by Ni-NTA reverse IMAC and finally filtrated for size on a Superdex 200 16/60 column. Final protein was concentrated using a spin concentrator at 10 kDa molecular weight cut-off and formulated in 150 mM NaCl, 50 mM Tris-HCl, 50% Glycerol, pH 8.0.
as §1, with “50 mM” for “50mM”, “h-Gln-AMC” for “hGln-AMC”, “Tris-HCl” for “Tris-HCl 25”, “QC” for “isoQC”
25 µL of the pyroglutamylation reaction mixture was transferred into an empty plate and to that, 25 µL of the pGAPase enzyme solution was added. Plates were then incubated for 25 minutes at room temperature before fluorescence readings were taken on an Envision2 plate reader with excitation set at 380 nm and emission at 450 nm.
Controls were taken along containing pyroglutamylated-AMC (Bachem, dissolved at 10 mM in DMSO) instead of H-Gln-AMC to control for pGAPase inhibition.
as §2

[3] = tested on: pyroglutamylated CD47; assay: Assay 3 - cell-based potency assay (pyroglutamylation in live cells, total CD47/pE-CD47 dual staining, FACS); design: species or system human; conditions: IC50 of CC2C6 signal, KBM7 cells, 72 hours incubation
Experimental: Cells were spun for 4 minutes at 1500 rpm and washed once with PBS / 0.5% BSA. Cells were spun down again and the supernatant was removed and incubated in 100 uL antibody staining solution (PBS / 0.5% BSA / 0.1 µg/mL DAPI (4',6-diamidino-2-phenylindole, ThermoFisher Scientific) and a mixture of 1:500 FITC-conjugated anti-human CD47 clone 2D3, which recognizes total CD47 irrespective of its pyroglutamylation state, and 1:500 Alexa647-conjugated anti-human CD47 clone CC2C6, which specifically detects pyroglutamylated CD47) for 2 hours at 4°C. Next, the cells were spun down and washed twice with 2 x 150 µL PBS / 0.5% BSA to remove unbound antibody. Cells were again spun down and taken up in 300 µL FACS buffer before analysis on a Celesta FACS machine (BD Biosciences).
KBM7 cells (Kotecki et al., 1999) were infected with lentivirus produced by transfecting pSCNC-LentiCRISPR-QPCTL or pSCNC-LentiCRISPR-CD47 into HEK-293T cells according to standard protocols. After 24 hours incubation, cells were selected with puromycin (Invivogen, 1 µg/mL) for 48 hours. Cells were stained for total CD47 and pE-CD47 and QPCTL k.o. cells were sorted out as negative for pE-CD47, and CD47 k.o. cells as negative for total CD47, using a FACSAria III and FACS Diva software (BD Biosciences).
In order to test compounds for their effect on pyroglutamylation in live cells, 25000 KBM7 cells per well were seeded in a 96-well U-bottom plate in 150 µl IMDM / 10% FCS / 1% Pen / Strep medium and a 10-point 2-fold dilution range of test compounds. After 72 hours incubation at 37°C, 5% COz, cells were stained for total CD47 and pE-CD47 and analysed on a BD Celesta using FACS Diva software (BD Biosciences). Cells gated for DAPI negativity were recorded and the median fluorescence intensity (MFI) of each sample was transformed to linearly scale between the MFI's of wildtype and CD47 knockout cells (in case of the 2D3 antibody) and the wildtype and QPCTL knockout cells (in case of the CC2C6 antibody). ICso's were calculated by 3 parameter logistic regression of the CC2C6 signal vs. compound concentration, where the top of the sigmoidal curve was fixed at 1, using R and the drc package (http://www.r-project.org, https://cran.r-project.org/web/packages/drc/index.html).

SMILES	IC50 [1] [nM]	IC50 [2] [nM]	IC50 ([3]; Homo sapiens, KBM-7, 72 h) [nM]	IC50 [3] [nM]
O=C1OCC(c2cc(F)cc(C(F)(F)F)c2)N1c1ccc2[nH]cnc2c1 (racemic) [(17)-Rac, reference compound]	1200	1730	> 50000	–
O=C1OCC(c2ccc(N3CCCC3)cc2)N1c1ccc2[nH]cnc2c1 (racemic) [(18)-Rac, reference compound]	48.4	49.1	8510	–
O=C1OCC(c2ccc(C3CCC(F)(F)CC3)cc2)N1c1ccc2[nH]cnc2c1 (racemic) [(19)-Rac, reference compound]	63.7	–	10400	–
O=C1OCC(c2cc(F)cc(C(F)(F)F)c2)N1c1ccc2[nH]cnc2c1 (single isomer, unassigned) [(17)-ent1, reference compound]	10900	> 10000	> 50000	–
O=C1OCC(c2ccc(N3CCCC3)cc2)N1c1ccc2[nH]cnc2c1 (single isomer, unassigned) [(18)-ent1, reference compound]	1170	2530	–	> 50000
O=C1OCC(c2ccc(C3CCC(F)(F)CC3)cc2)N1c1ccc2[nH]cnc2c1 (single isomer, unassigned) [(19)-ent1, reference compound]	1240	–	–	> 12500
O=C1OC[C@H](c2ccc(-c3cnn(C(F)(F)F)c3)c(F)c2F)N1c1ccc2[nH]cnc2c1 [(2)]	4	38.9	106	–
O=C1OC[C@H](c2ccc(-c3ccn(C(F)(F)F)n3)cc2F)N1c1ccc2[nH]cnc2c1 [(5)]	7.7	34.7	659	–
O=C1OC[C@H](c2ccc(-c3cnn(C(F)(F)F)n3)cc2F)N1c1ccc2[nH]cnc2c1 [(6)]	3	15.1	–	–
O=C1OC[C@H](c2ccc(-c3ccc(C(F)(F)F)o3)cc2F)N1c1ccc2[nH]cnc2c1 [(7)]	10	70.1	503	–
O=C1OC[C@H](c2ccc(-c3ccc(C(F)(F)F)s3)cc2F)N1c1ccc2[nH]cnc2c1 [(8)]	13.4	86	526	–
O=C1OC[C@H](c2ccc(-c3nc(C(F)(F)F)cs3)cc2F)N1c1ccc2[nH]cnc2c1 [(9)]	9	36.1	622	–
O=C1OC[C@H](c2ccc(-c3noc(C(F)(F)F)n3)cc2F)N1c1ccc2[nH]cnc2c1 [(10)]	12.6	48.2	–	–
O=C1OC[C@H](c2ccc(-c3cc(C(F)(F)F)no3)cc2F)N1c1ccc2[nH]cnc2c1 [(11)]	5.2	24.3	252	–
O=C1OC[C@H](c2ccc(-c3cnn(C(F)F)c3)cc2F)N1c1ccc2[nH]cnc2c1 [(12)]	3.3	7.5	157	–
O=C1OC[C@H](c2ccc(-c3cnn(CF)c3)cc2F)N1c1ccc2[nH]cnc2c1 [(13)]	4	11.3	401	–
O=C1OC[C@H](c2ccc(-c3cnn(C4CC4(F)F)c3)cc2F)N1c1ccc2[nH]cnc2c1 (stereo partly drawn) [(14)]	3.6	12.7	–	–
O=C1OC[C@H](c2ccc(-c3cnn(CC(F)F)c3)cc2F)N1c1ccc2[nH]cnc2c1 [(15)]	2.7	8	155	–
O=C1OC[C@H](c2ccc(-c3cnn(C4CC(F)(F)C4)c3)cc2F)N1c1ccc2[nH]cnc2c1 [(16)]	5.1	9.4	–	–
